Reference: patent publication US10376498B2, “3-alkyl pyridinium compound from red sea sponge with potent antiviral activity” (priority 2014, dated 2019)

These molecules were tested against T1, West Nile Virus NS3 protease (West Nile virus, UniProt P06935, DELINS1467-1501GGGGSGGGG) (assay: West Nile Virus NS3 protease inhibition assay (SensoLyte 440 kit)). Settings: LOPAC compounds clustering with fraction 2.
T1 construct: truncated form of West Nile NS3 protease (residues 1-186); purchased AnaSep (AnaSpec), San Jose, Calif., USA
T1 sequence (P06935 with tags, fused parts or gaps DELINS1467-1501GGGGSGGGG): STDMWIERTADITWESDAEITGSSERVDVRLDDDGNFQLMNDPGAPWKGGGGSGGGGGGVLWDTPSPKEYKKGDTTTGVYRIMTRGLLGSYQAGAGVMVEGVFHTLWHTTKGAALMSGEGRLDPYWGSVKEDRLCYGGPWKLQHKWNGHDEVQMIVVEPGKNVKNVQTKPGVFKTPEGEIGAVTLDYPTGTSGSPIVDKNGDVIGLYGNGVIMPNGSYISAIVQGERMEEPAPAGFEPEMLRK
Assay type: biochemical
Method: The SPE fraction was further fractionated in order to isolate the prominent peaks identified by LC-MS using the technique of HPLC and determined retention times.
The West Nile Virus NS3 protease inhibition assay was carried out using the commercial kit SensoLyte® 440 West Nile Virus Protease Assay Kit (AnaSep, San Jose, Calif., USA). The protease is a truncated form of West Nile NS3 protease (residues 1-186) connected to it is NS2B cofactor (residues 49-96) by the linker sequence, […]. Protease activity was assessed by its ability to cleave the fluorogenic peptide Pyr-RTKRAMC, and the subsequent production of free AMC (7-amino-4-methylcoumarin) fluorophores. All extracts and controls were performed with three replicates in a 384-well plate format, each with a total reaction mixture of 33 μl. To begin, the test extracts and protease solution were incubated at 37° C. for 10 min before the addition of the pre-heated substrate. After substrate addition and gentle mixing the reaction was incubated at 37° C. for one hour. The fluorophore was detected with the use of a SpectraMax® Paradigm® Multimode Microplate Detection Platform (Molecular Devices, Sunnyvale, Calif., USA) by scanning at 354 nm excitation wavelength and 442 n emission wavelength.

Question: `C[C@]12C[C@H](O)[C@H]3[C@@H](CCC4=CC(=O)CC[C@@]43C)[C@@H]1CC[C@@H]2C(=O)CO` (single isomer, unassigned) [Corticosterone] was tested. Which “inhibition of the WNV NS protease (in words)” value (“inhibition” below) did it give?
Answer: no inhibition

Question: With `Clc1nccc2c1ccc1ccccc12` [CBIQ] as the molecule, how does the “inhibition” value read?
Answer: no inhibition

Question: How did the “inhibition” value turn out when `C[C@@H]1C(=O)NC2=Nc3cccc(Cl)c3CN21` [Quazinone] was run?
Answer: no inhibition

Question: For `O.O.O=c1c(O)c(-c2ccc(O)c(O)c2)oc2cc(O)cc(O)c12` [Quercetin dehydrate], which “inhibition” value is on record?
Answer: no inhibition

Question: Which “inhibition” value does the source give for `CCN1/C(=C/C(C)=O)Sc2ccc(OC)cc21` [TG003] here?
Answer: no inhibition
